Four molecules from patent US20130017537A1, “METHOD OF IN-VITRO IMMUNOASSAY” (BASF Beauty Care Solutions France S.A.S., priority 2011, published 2013) can be followed below.

The test system of the assay is type V collagen in the ECM. The assay can be described thus: Influence of the lysis solution on the assay of type V collagen in the ECM. The class given is cell-based, human. The following applies: for Ratio: Coll/DNA % (NH4OH = 100): repeat experiment, Table 3.2; for Ratio: Coll/DNA % (20 mM = 100.00): Table 3.3. As for the experimental part:
Thus, normal human fibroblasts obtained from abdominal biopsies were seeded in a 96-well plate and cultured in a defined medium (FGM) to 100% confluency.
After 48 hours of culture postconfluency at 37° C. under 0.5% CO2, the culture medium was collected.
The time of application of the lysis solution tested was 10 minutes at room temperature and with stirring.
The collagen V in the ECM was assayed directly on the ECM by using an anticollagen V antibody. A secondary antibody conjugated to europium was used with a detection reagent and the fluorescence was measured. (Delfia® kit—Perkin Elmer).
The experiment was repeated and the lysis solutions tested were as follows: • solution according to the invention NH4OH: 110 μl of an ammonium hydroxide solution at concentrations between 200 μM and 2 M. • Solution of monoethylamine at 20 Mm • Solution of diethylamine at 20 mM • Solution of triethylamine at 20 mM

Molecules are shown by their SMILES.

Take `CCN` [Monoethylamine, monoethylamine]: the “Ratio: Coll/DNA % (NH4OH = 100)” value worked out at 23.78%.

As to `CCN(CC)CC` [Triethylamine, triethylamine], the “Ratio: Coll/DNA % (NH4OH = 100)” value worked out at 21.13%.

As for `N` [NH4OH, ammonium hydroxide], the “Ratio: Coll/DNA % (NH4OH = 100)” value is 100%. The “Ratio: Coll/DNA % (20 mM = 100.00)” value (NH4OH 200 μM) was found to be 117.43%. For the same molecule, where the note is “NH4OH 2 mM”, the “Ratio: Coll/DNA % (20 mM = 100.00)” value is listed as 131.56%. Besides, the “Ratio: Coll/DNA % (20 mM = 100.00)” value (NH4OH 20 mM) worked out at 100.00%. Further, for the setting “NH4OH 200 mM”, the “Ratio: Coll/DNA % (20 mM = 100.00)” value is 86.47%. Besides, the “Ratio: Coll/DNA % (20 mM = 100.00)” value (NH4OH 2M) came to 67.67%.

For `CCNCC` [Diethylamine, diethylamine], the “Ratio: Coll/DNA % (NH4OH = 100)” value is reported as 17.33%.
